One test concerns the target B-Raf (V600E) (Homo sapiens (Human), UniProt P15056, V600E). In words: Raf kinase assay (B-Raf (V600E)), [33P] incorporation into MEK1(K97R). The format is biochemical. The method in brief:
(§1)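 [33P] transfer to kinase-dead MEK1(K97R) substrate (500 ng) measured after 30 min at 30 °C in Tris pH 7.5 buffer containing 8 μM ATP. Enzyme inputs were 2 ng for C-Raf and 5 ng for B-Raf and B-Raf V600E. Duplicate 3-fold serial dilutions gave the half-maximal inhibitory concentration.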

Another test has as its target EGFR (T790M) kinase (Homo sapiens (Human), UniProt P00533, T790M). Description: EGFR (T790M) kinase assay. Format: biochemical. As to the method:
C. EGFR (T790M) Kinase Assay
Inhibition of EGFR (T790M) kinase activity by compounds disclosed herein was quantified by measuring the amount of [^33P] incorporated into the substrate in the presence of a test compound. Briefly, a reaction mixture of 25 μL final volume containing 25 ng of EGFR (T790M) kinase (EGFR (T790M) kinase domain alone, Millipore), 5 μg of the substrate [poly(Glu-Tyr), Sigma], kinase reaction buffer (10 mM MOPS pH 7.0, 0.3 mM EDTA, 0.5% glycerol, 0.001% Brij-35, 10 mM MnCl2, 0.1 mg/ml BSA, 100 μM ATP, 0.1 μCi per well [^33P]-γ-ATP (2,500-3,000 Ci/mmol)), and a test compound (100 nM; diluted with 4% DMSO) or DMSO (as the control) was incubated at 30° C. for 60 minutes. The reaction was stopped by adding 5 μL of 3% phosphoric acid solution. The resultant reaction solution was then harvested onto a filter plate (UniFilter-96 GF/B, PerkinElmer), washed 20 times for 5 min with d.d. […] The radioactivity retained on the filter membrane was measured by TopCount™ scintillation detector (PerkinElmer). The results were analyzed by using linear regression software (GraphPad Prism™ 4; GraphPad Software Inc.). The percentage of inhibition of EGFR (T790M) by the test compound was calculated by dividing the retained radioactivity of the test sample with the retained radioactivity of the control sample and shown in Table 4.

The subject of the next test is A375. Description: Anti-proliferative activity, CellTiter-96 assay, A375. The format is cell-based. As to conditions: Homo sapiens, A-375, A375 cells, 72 hours incubation. The method in brief:
(§2)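 Cells in DMEM with 10% FCS at 37° C., 5% CO2, plated at 2000 cells/well for 24 h, then exposed to graded compound concentrations for 72 h. CellTiter-96 Aqueous One reagent added for 4.0 h; viability read as absorbance at 490 nm.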

Another test deals with MDA-MB-231. Description: Anti-proliferative activity, CellTiter-96 assay, MDA-MB-231. The format is cell-based. The settings on record: Homo sapiens, MDA-MB-231 cells, 72 hours incubation. The method in brief: as §2
Another test deals with B-Raf (Homo sapiens (Human), UniProt P15056). Description: Raf kinase assay (B-Raf), [33P] incorporation into MEK1(K97R). The format is biochemical. The settings on record: for inhibition at 1 µM: 1.0 μM compound, read-out: B-Raf inhibition at 1.0 μM. The method in brief:
as §1

For another test, the target named is EGFR kinase (Homo sapiens (Human), UniProt P00533). In words: EGFR kinase assay. The format is biochemical. As to the method: Inhibition of EGFR kinase activity by compounds disclosed herein is quantified by measuring the amount of [^33P] incorporated into the substrate in the presence of a test compound. Briefly, a reaction mixture of 25 μL final volume containing 25 ng of EGFR kinase (EGFR kinase domain alone, Millipore), 3 μg of the substrate [poly(Glu-Tyr), Sigma], kinase reaction buffer (10 mM MOPS pH 7.0, 0.3 mM EDTA, 0.5% glycerol, 0.001% Brij-35, 10 mM MnCl2, 0.1 mg/ml BSA, 100 μM ATP, 0.1 μCi per well [^33P]-γ-ATP (2,500-3,000 Ci/mmol)), and a test compound (100 nM, diluted with 4% DMSO) or DMSO (as the control) was incubated at 30° C. for 30 minutes. The reaction was stopped by adding 5 μL of 3% phosphoric acid solution. The resultant reaction solution was then harvested onto a filter plate (UniFilter-96 GF/B, PerkinElmer), washed 20 times for 5 min with d.d. H2O, and followed by the addition of 30 μL of MicroScint™-20 Cocktail (PerkinElmer). The radioactivity retained on the filter membrane was measured by TopCount™ scintillation detector (PerkinElmer). The results were analyzed by using linear regression software (GraphPad Prism™ 4; GraphPad Software Inc.). IC50 value is defined as the concentration of the test compound which achieves a half-maximal inhibition of the kinase activity.
Sequence of EGFR kinase (P00533 712-979): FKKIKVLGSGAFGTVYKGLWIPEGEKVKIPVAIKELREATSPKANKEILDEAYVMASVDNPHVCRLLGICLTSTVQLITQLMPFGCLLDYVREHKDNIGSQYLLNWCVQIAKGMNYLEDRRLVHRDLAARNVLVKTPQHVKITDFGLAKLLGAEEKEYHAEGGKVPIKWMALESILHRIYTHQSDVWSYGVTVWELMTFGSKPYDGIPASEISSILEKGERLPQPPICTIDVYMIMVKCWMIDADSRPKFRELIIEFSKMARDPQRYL

The test system of another test is COLO205. Description: Anti-proliferative activity, CellTiter-96 assay, COLO205. Format: cell-based. As to conditions: Homo sapiens, COLO 205, COLO205 cells, 72 hours incubation. The method in brief: as §2
In a further test the test system is A549. In words: Anti-proliferative activity, CellTiter-96 assay, A549. The format is cell-based. The settings on record: Homo sapiens, A549 cells, 72 hours incubation. The method in brief:
as §2

Consider two compounds from patent US8785459B2, “Quinazoline compounds as kinase inhibitors” (Development Center for Biotechnology, priority 2011, dated 2014).

As a reminder, the IC50 is the concentration that inhibits the measured activity by half. Higher therefore signals weaker potency in that assay. For orientation: inhibition means the relative decrease from the control value, in per cent.

Sequence of B-Raf (P15056 whole entry): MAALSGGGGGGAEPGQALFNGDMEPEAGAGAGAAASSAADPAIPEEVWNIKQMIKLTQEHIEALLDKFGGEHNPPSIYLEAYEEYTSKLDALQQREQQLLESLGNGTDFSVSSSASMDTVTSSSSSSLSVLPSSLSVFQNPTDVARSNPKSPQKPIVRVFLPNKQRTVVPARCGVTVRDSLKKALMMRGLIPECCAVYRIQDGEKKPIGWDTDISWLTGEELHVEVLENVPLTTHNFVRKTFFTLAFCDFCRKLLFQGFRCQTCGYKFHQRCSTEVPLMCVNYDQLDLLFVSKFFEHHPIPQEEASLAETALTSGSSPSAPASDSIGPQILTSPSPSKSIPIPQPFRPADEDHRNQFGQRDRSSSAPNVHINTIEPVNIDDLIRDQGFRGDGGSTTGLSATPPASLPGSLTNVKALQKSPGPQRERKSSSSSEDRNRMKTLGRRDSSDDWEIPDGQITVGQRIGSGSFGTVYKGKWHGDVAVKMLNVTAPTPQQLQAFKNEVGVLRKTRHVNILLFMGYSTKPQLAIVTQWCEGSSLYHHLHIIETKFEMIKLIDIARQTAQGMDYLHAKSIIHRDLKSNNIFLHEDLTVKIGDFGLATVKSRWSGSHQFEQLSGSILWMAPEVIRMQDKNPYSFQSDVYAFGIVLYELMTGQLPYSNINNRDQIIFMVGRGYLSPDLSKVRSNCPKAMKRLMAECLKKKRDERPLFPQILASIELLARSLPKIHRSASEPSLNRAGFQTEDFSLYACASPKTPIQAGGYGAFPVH
Sequence of EGFR (T790M) kinase (P00533 712-979 T790M): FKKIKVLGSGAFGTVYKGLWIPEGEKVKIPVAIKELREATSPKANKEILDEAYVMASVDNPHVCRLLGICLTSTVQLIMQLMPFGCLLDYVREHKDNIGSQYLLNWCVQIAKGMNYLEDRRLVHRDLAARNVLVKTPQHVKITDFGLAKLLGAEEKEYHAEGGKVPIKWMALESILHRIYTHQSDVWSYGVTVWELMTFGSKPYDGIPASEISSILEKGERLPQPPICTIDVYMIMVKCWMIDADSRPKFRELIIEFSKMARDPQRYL
Sequence of B-Raf (V600E) (P15056 whole entry V600E): as the sequence (P15056 whole entry) above, with V600E counted along it

Consider `COc1cc(-c2ccc3ncnc(Nc4cccc(O)c4)c3c2)ccc1O` [Compound 8, 4-(4-(3-hydroxyphenylamino)quinazolin-6-yl)-2-methoxyphenol], for which the IC50 against B-Raf (V600E) was 37.4 nM; in the test with A375, 900 ± 200 nM; in the test on MDA-MB-231, 1500 ± 100 nM; against B-Raf, 30.2 nM; against EGFR kinase it was 18.7 nM; in the test with COLO205, 6700 ± 100 nM. In the test on A549, this compound returned an IC50 of 1100 ± 100 nM. For the same compound, the inhibition at 1 µM at EGFR (T790M) kinase was 66%; at B-Raf, 94.2%.

Turning to `COc1cc(-c2ccc3ncnc(Nc4cc(O)ccc4F)c3c2)ccc1O` [Compound 58, 4-(4-(2-fluoro-5-hydroxyphenylamino)quinazolin-6-yl)-2-methoxyphenol], the IC50 worked out at 23.2 nM on B-Raf (V600E); 500 ± 100 nM in the test on A375; 800 ± 300 nM in the test with MDA-MB-231; 16.1 nM against B-Raf; 14.9 nM against EGFR kinase; 3200 ± 300 nM in the test on COLO205. This compound yielded an IC50 with A549 of 500 ± 200 nM. In addition, the values for the inhibition at 1 µM on EGFR (T790M) kinase and on B-Raf were 60% and 92.6%, respectively.
